Source: PMC7180948, “New Insights into 4-Anilinoquinazolines as Inhibitors of Cardiac Troponin I–Interacting Kinase (TNNi3K)” (Molecules, 2020)
Each block holds one compound with its values, some of them ahead of it.

Tests used:
MEK5 = target: T1, MEK5 (Homo sapiens, UniProt Q13163); experiment: KINOMEscan at […], single concentration; assay type: binding
T1 construct: gene MAP2K5

MAP3K15 = MAP3K15 (Homo sapiens, UniProt Q6ZN16); experiment: biochemical; set-up: KINOMEscan competition binding panel (Eurofins DiscoverX), single concentration, percent inhibition; details: read-out: 15 at 1 µM % inhibition
Experimental: (§1) KinomeScan® Assay on 7 and 15 was performed as previously described by EuroFins DiscoverX [24]. GSK114 (7) and 15 were submitted for a KINOMEscan® assay to explore the selectivity profile across >400 human kinases at a compound concentration of 1 µM. […] GSK114 (7) is a narrow-spectrum TNNi3K inhibitor but has some potent off-targets including GAK which has been previously reported for this chemotype. […] If utilized together this set of compounds could be useful to investigate TNNi3K biology.

LCK = LCK (Homo sapiens, UniProt P06239); experiment: biochemical; set-up: KINOMEscan competition binding panel (Eurofins DiscoverX), single concentration, percent inhibition; details: read-out: 15 at 1 µM % inhibition
Experimental: as §1

RIOK1 = RIOK1 (Homo sapiens, UniProt Q9BRS2); experiment: biochemical; set-up: KINOMEscan competition binding panel (Eurofins DiscoverX), single concentration, percent inhibition; details: read-out: 15 at 1 µM % inhibition
Experimental: as §1

TRKC = target: T2, TRKC (Homo sapiens, UniProt Q16288); experiment: biochemical; set-up: KINOMEscan competition binding panel (Eurofins DiscoverX), single concentration, percent inhibition; details: read-out: 15 at 1 µM % inhibition
T2 construct: gene NTRK3
Experimental: as §1

ANKK1 = ANKK1 (Homo sapiens, UniProt Q8NFD2); experiment: biochemical; set-up: KINOMEscan competition binding panel (Eurofins DiscoverX), single concentration, percent inhibition; details: read-out: 15 at 1 µM % inhibition
Experimental: as §1

GSK3B = GSK3B (Homo sapiens, UniProt P49841); experiment: biochemical; set-up: KINOMEscan competition binding panel (Eurofins DiscoverX), single concentration, percent inhibition; details: read-out: 15 at 1 µM % inhibition
Experimental: as §1

NIM1 = target: T3, NIM1 (Homo sapiens, UniProt Q8IY84); experiment: biochemical; set-up: KINOMEscan competition binding panel (Eurofins DiscoverX), single concentration, percent inhibition; details: read-out: 15 at 1 µM % inhibition
T3 construct: gene NIM1K
Experimental: as §1

MAPKAPK5 = MAPKAPK5 (Homo sapiens, UniProt Q8IW41); experiment: biochemical; set-up: KINOMEscan competition binding panel (Eurofins DiscoverX), single concentration, percent inhibition; details: read-out: 15 at 1 µM % inhibition
Experimental: as §1

ADCK4 = target: T4, ADCK4 (Homo sapiens, UniProt Q96D53); experiment: biochemical; set-up: KINOMEscan competition binding panel (Eurofins DiscoverX), single concentration, percent inhibition; details: read-out: 15 at 1 µM % inhibition
T4 construct: gene COQ8B
Experimental: as §1

SRC = SRC (Homo sapiens, UniProt P12931); experiment: biochemical; set-up: KINOMEscan competition binding panel (Eurofins DiscoverX), single concentration, percent inhibition; details: read-out: 15 at 1 µM % inhibition
Experimental: as §1

CLK2 = CLK2 (Homo sapiens, UniProt P49760); experiment: biochemical; set-up: KINOMEscan competition binding panel (Eurofins DiscoverX), single concentration, percent inhibition; details: read-out: 15 at 1 µM % inhibition
Experimental: as §1

MEK2 = target: T5, MEK2 (Homo sapiens, UniProt P36507); experiment: biochemical; set-up: KINOMEscan competition binding panel (Eurofins DiscoverX), single concentration, percent inhibition; details: read-out: 15 at 1 µM % inhibition
T5 construct: gene MAP2K2
Experimental: as §1

CSNK1E = CSNK1E (Homo sapiens, UniProt P49674); experiment: biochemical; set-up: KINOMEscan competition binding panel (Eurofins DiscoverX), single concentration, percent inhibition; details: read-out: 15 at 1 µM % inhibition
Experimental: as §1

BMPR1B = BMPR1B (Homo sapiens, UniProt O00238); experiment: biochemical; set-up: KINOMEscan competition binding panel (Eurofins DiscoverX), single concentration, percent inhibition; details: read-out: 15 at 1 µM % inhibition
Experimental: as §1

ABL1-nonphosphorylated = target: T6, ABL1-nonphosphorylated (Homo sapiens, UniProt P00519); experiment: biochemical; set-up: KINOMEscan competition binding panel (Eurofins DiscoverX), single concentration, percent inhibition; details: read-out: 15 at 1 µM % inhibition
T6 construct: nonphosphorylated
Experimental: as §1

p38-alpha = target: T7, p38-alpha (Homo sapiens, UniProt Q16539); experiment: biochemical; set-up: KINOMEscan competition binding panel (Eurofins DiscoverX), single concentration, percent inhibition; details: read-out: 15 at 1 µM % inhibition
T7 construct: gene MAPK14
Experimental: as §1

TNIK = TNIK (Homo sapiens, UniProt Q9UKE5); experiment: biochemical; set-up: KINOMEscan competition binding panel (Eurofins DiscoverX), single concentration, percent inhibition; details: read-out: 15 at 1 µM % inhibition
Experimental: as §1

QSK = target: T8, QSK (Homo sapiens, UniProt Q9Y2K2); experiment: biochemical; set-up: KINOMEscan competition binding panel (Eurofins DiscoverX), single concentration, percent inhibition; details: read-out: 15 at 1 µM % inhibition
T8 construct: gene SIK3
Experimental: as §1

FLT3(D835V) = FLT3(D835V) (Homo sapiens, UniProt P36888, D835V); experiment: biochemical; set-up: KINOMEscan competition binding panel (Eurofins DiscoverX), single concentration, percent inhibition; details: read-out: 15 at 1 µM % inhibition
Experimental: as §1

CLK4 = CLK4 (Homo sapiens, UniProt Q9HAZ1); experiment: biochemical; set-up: KINOMEscan competition binding panel (Eurofins DiscoverX), single concentration, percent inhibition; details: read-out: 15 at 1 µM % inhibition
Experimental: as §1

BRSK1 = BRSK1 (Homo sapiens, UniProt Q8TDC3); experiment: biochemical; set-up: KINOMEscan competition binding panel (Eurofins DiscoverX), single concentration, percent inhibition; details: read-out: 15 at 1 µM % inhibition
Experimental: as §1

CLK1 = CLK1 (Homo sapiens, UniProt P49759); experiment: biochemical; set-up: KINOMEscan competition binding panel (Eurofins DiscoverX), single concentration, percent inhibition; details: read-out: 15 at 1 µM % inhibition
Experimental: as §1

ROS1 = ROS1 (Homo sapiens, UniProt P08922); experiment: biochemical; set-up: KINOMEscan competition binding panel (Eurofins DiscoverX), single concentration, percent inhibition; details: read-out: 15 at 1 µM % inhibition
Experimental: as §1

ULK3 = ULK3 (Homo sapiens, UniProt Q6PHR2); experiment: biochemical; set-up: KINOMEscan competition binding panel (Eurofins DiscoverX), single concentration, percent inhibition; details: read-out: 15 at 1 µM % inhibition
Experimental: as §1

T1 sequence (Q13163 whole entry): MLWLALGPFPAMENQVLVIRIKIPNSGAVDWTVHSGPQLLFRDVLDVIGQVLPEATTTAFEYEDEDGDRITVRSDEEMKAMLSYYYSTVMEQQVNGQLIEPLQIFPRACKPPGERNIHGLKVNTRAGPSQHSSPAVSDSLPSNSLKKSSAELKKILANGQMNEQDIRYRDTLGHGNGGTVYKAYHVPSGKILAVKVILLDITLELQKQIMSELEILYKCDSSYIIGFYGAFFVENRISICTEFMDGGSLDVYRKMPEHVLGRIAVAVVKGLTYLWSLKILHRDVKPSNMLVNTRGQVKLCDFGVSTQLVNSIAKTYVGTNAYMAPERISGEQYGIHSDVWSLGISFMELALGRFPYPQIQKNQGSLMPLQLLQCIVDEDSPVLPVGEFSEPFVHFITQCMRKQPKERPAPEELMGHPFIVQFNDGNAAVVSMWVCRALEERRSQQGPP
T3 sequence (Q8IY84 whole entry): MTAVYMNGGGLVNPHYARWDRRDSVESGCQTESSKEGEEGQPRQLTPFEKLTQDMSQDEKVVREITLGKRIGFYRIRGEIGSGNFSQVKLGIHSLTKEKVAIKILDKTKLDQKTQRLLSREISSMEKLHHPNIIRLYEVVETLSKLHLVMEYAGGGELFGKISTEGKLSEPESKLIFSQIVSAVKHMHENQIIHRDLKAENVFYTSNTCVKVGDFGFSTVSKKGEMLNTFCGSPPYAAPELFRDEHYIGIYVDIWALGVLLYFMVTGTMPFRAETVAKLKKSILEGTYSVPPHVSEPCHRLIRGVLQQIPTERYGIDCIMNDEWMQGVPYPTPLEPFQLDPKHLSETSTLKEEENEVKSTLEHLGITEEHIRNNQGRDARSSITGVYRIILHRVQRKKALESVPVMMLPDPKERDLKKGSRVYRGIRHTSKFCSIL
T2 sequence (Q16288 whole entry): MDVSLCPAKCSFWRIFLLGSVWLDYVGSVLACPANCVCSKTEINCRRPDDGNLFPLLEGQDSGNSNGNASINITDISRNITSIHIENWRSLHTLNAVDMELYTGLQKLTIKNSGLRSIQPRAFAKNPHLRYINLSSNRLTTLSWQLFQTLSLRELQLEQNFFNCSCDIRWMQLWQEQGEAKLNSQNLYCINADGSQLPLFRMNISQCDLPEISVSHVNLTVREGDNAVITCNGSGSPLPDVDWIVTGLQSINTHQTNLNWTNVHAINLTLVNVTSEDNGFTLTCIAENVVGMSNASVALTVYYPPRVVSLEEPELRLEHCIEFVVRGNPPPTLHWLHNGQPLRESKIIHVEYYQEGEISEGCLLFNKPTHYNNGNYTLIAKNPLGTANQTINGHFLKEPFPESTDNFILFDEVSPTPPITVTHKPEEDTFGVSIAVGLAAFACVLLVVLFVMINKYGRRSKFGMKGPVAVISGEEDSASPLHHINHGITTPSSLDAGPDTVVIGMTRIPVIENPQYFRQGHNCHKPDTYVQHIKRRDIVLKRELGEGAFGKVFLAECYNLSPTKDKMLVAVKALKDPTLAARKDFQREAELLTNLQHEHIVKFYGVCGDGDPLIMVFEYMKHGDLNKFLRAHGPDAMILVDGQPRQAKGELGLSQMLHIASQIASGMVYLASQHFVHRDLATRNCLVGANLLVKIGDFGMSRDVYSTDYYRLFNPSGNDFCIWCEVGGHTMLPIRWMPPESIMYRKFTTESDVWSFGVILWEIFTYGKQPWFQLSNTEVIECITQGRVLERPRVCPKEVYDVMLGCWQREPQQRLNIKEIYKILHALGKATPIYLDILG
T6 sequence (P00519 whole entry): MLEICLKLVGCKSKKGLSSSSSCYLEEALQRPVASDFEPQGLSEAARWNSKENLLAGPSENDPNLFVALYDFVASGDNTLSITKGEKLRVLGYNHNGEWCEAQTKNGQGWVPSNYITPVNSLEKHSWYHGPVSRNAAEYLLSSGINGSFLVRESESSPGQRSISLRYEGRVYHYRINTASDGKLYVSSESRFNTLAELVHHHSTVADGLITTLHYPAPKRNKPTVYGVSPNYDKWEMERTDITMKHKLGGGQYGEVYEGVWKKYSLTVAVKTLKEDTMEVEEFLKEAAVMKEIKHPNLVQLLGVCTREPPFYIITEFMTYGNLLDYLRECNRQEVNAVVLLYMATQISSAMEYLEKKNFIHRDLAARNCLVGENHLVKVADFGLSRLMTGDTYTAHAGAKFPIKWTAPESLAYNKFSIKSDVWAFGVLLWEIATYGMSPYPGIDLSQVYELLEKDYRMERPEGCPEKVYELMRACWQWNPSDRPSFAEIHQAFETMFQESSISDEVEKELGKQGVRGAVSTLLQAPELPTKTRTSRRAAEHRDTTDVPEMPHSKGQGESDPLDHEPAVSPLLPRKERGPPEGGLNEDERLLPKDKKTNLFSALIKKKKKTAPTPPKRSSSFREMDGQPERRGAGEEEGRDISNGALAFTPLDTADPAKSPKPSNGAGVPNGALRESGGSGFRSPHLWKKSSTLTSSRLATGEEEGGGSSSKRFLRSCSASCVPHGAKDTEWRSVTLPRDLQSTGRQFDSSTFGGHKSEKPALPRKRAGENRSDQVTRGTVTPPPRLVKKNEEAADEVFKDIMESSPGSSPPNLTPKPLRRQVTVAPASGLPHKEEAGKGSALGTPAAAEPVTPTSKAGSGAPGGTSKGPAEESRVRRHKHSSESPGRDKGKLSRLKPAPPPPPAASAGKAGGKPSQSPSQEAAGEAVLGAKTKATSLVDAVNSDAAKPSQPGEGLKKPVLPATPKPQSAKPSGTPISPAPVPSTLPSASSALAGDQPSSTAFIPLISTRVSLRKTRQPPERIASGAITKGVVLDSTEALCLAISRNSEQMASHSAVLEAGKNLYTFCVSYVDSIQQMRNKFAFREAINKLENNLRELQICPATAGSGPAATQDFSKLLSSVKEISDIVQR
Chain of CLK4 (Q9HAZ1 whole entry): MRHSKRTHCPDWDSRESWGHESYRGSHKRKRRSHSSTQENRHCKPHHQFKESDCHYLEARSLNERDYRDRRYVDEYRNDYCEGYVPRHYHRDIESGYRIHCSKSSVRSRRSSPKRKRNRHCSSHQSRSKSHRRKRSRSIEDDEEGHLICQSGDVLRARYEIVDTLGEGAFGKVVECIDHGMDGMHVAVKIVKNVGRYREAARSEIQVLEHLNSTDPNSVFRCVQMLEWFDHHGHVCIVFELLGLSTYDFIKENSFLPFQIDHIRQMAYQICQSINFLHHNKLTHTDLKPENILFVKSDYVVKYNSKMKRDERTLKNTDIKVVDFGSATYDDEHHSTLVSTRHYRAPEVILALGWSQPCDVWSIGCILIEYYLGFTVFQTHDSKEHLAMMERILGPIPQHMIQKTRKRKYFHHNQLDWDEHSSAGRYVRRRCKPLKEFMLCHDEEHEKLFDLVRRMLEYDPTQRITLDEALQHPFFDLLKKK
Chain of ULK3 (Q6PHR2 whole entry): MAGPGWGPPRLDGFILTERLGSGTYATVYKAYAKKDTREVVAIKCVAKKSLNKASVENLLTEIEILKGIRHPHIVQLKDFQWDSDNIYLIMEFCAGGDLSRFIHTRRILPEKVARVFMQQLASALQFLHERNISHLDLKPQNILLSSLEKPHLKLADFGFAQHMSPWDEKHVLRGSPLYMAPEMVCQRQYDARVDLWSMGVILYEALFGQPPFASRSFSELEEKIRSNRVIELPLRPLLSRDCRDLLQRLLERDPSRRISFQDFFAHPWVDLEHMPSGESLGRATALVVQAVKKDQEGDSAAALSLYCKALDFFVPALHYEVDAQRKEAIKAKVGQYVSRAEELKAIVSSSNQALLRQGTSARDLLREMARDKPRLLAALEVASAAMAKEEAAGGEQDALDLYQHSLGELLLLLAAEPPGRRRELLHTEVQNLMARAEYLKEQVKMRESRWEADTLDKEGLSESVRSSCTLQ
T7 sequence (Q16539 whole entry): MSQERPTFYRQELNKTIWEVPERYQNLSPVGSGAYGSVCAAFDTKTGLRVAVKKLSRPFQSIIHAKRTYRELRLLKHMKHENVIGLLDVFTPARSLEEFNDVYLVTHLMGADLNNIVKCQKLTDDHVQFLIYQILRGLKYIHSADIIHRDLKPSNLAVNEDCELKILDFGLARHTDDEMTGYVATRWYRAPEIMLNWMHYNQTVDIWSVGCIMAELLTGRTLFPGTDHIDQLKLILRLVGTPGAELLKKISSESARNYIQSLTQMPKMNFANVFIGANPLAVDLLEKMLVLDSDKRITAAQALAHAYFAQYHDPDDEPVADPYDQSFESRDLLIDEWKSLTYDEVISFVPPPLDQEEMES
Chain of LCK (P06239 whole entry): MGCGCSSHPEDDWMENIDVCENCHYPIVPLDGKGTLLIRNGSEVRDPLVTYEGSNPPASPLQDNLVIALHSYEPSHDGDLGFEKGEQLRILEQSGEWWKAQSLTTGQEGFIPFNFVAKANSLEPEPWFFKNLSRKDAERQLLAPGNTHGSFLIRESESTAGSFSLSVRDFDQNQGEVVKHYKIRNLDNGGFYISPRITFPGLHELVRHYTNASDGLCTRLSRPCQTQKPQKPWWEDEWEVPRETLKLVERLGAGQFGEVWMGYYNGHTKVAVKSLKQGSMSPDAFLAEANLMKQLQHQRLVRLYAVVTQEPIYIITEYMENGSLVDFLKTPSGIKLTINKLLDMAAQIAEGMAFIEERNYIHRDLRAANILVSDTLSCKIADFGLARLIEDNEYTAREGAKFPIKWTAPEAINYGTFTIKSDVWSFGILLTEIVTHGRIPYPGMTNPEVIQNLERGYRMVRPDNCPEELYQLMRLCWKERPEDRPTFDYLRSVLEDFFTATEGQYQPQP

Compound: CNS(=O)(=O)c1ccc(N(C)C)c(Nc2ncnc3cc(OC)c(OC)cc23)c1 [compound 7, 3-((6,7-dimethoxyquinazolin-4-yl)amino)-4-(dimethylamino)-N-methylbenzenesulfonamide]
- inhibition at 1 µM (MEK5): 100%

- inhibition at 1 µM (MEK5): 92%
- inhibition at 1 µM (MAP3K15): 28%
- inhibition at 1 µM (LCK): 0%
- inhibition at 1 µM (RIOK1): 0%
- inhibition at 1 µM (TRKC): 22%
- inhibition at 1 µM (ANKK1): 24%
- inhibition at 1 µM (GSK3B): 17%
- inhibition at 1 µM (NIM1): 27%
- inhibition at 1 µM (MAPKAPK5): 23%
- inhibition at 1 µM (ADCK4): 0%
- inhibition at 1 µM (SRC): 0%
- inhibition at 1 µM (CLK2): 0%
- inhibition at 1 µM (MEK2): 10%
- inhibition at 1 µM (CSNK1E): 0%
- inhibition at 1 µM (BMPR1B): 31%
- inhibition at 1 µM (ABL1-nonphosphorylated): 13%
- inhibition at 1 µM (p38-alpha): 0%
- inhibition at 1 µM (TNIK): 1%
- inhibition at 1 µM (QSK): 22%
- inhibition at 1 µM (FLT3(D835V)): 37%
- inhibition at 1 µM (CLK4): 5%
- inhibition at 1 µM (BRSK1): 0%
- inhibition at 1 µM (CLK1): 0%
- inhibition at 1 µM (ROS1): 0%
- inhibition at 1 µM (ULK3): 23%
Compound: CNS(=O)(=O)c1ccc(N(C)C)c(Nc2nc(C)nc3cc(OC)c(OC)cc23)c1 [compound 15, 3-((6,7-dimethoxy-2-methylquinazolin-4-yl)amino)-4-(dimethylamino)-N-methylbenzenesulfonamide]
